Results published in patent US6399100B1, “Controlled release pharmaceutical compositions containing tiagabine” (Elan Corporation, plc, priority 1997, dated 2002).

Legend:
[1] = Aqueous solubility of raw material
Source text: The tiagabine employed in the following examples is the monohydrate crystalline form for the hydrochloride salt of the R isomer.

[2] = cited from earlier work
[3] = four hours after ingestion, deliberate overdose; cited from earlier work

aqueous solubility [1] | SMILES | half-life ([2]; in humans) | elimination half-life ([2]; lowered by enzyme inducers) | Plasma levels [3] | plasma level relative to typical steady state therapeutic dosing levels [3]
high | Cc1ccsc1C(=CCCN1CCCC(C(=O)O)C1)c1sccc1C.Cl (centres unmarked) [tiagabine hydrochloride monohydrate, N-(4,4-di(3-methylthien-2-yl)but-3-enyl) nipecotic acid hydrochloride] | – | – | – | –
– | Cc1ccsc1C(=CCCN1CCCC(C(=O)O)C1)c1sccc1C (centres unmarked) [tiagabine, N-(4,4-di(3-methylthien-2-yl)but-3-enyl) nipecotic acid] | 5 to 8 h | 2 to 3 h | 3100 ng/mL | 30 times
